These results are taken from patent publication US20210393811A1, “Imaging Agents and Methods of Use” (Texas Heart Institute, priority 2018, published 2021).

The target of assay [1] is T1, integrin α4β1 (Homo sapiens, UniProt P05556+P13612). Briefly: K562(α4β1) cell adhesion to CS-1. It is filed as cell-based. The arrangement: expressed in transfected cells; host or cells: K562(α4β1) cells. An excerpt:
A. Structure of TBC3486. B. Structure of THI0510 (TBC3486 modified with conjugatable linker [TBC3486-conj] for functionalization with reactive dye and/or chelator reagents). C. TBC3486 and THI0510 inhibition of α4β1-K562 cell adhesion to the CS-1 sequence from fibronectin.
A. Conjugated THI375 analogue. B. THI375 analogue conjugated to the fluorescent dye sulfo-Cy5 (THI526). C. Activity of THI527, THI526, and TBC-4746 in K562-α4β1/CS-1 adhesion assays performed in Mn++.
First attempts to generate an integrin α4β1 imaging agent took advantage of the TBC3486 core scaffold. Modifications to the core scaffold were generated to determine an appropriate site to which imaging conjugates could be attached (FIG. 1). […] Next, imaging agents were attached to this conjugation site and their activities tested in cell adhesion assays.

Assay [2] deals with T2, murine integrin α4β1 (Mus musculus, UniProt P09055+Q00651).
T2 construct: endogenous in cells; host or cells: 70Z3 cells
T2 sequence (Q00651 41-1039): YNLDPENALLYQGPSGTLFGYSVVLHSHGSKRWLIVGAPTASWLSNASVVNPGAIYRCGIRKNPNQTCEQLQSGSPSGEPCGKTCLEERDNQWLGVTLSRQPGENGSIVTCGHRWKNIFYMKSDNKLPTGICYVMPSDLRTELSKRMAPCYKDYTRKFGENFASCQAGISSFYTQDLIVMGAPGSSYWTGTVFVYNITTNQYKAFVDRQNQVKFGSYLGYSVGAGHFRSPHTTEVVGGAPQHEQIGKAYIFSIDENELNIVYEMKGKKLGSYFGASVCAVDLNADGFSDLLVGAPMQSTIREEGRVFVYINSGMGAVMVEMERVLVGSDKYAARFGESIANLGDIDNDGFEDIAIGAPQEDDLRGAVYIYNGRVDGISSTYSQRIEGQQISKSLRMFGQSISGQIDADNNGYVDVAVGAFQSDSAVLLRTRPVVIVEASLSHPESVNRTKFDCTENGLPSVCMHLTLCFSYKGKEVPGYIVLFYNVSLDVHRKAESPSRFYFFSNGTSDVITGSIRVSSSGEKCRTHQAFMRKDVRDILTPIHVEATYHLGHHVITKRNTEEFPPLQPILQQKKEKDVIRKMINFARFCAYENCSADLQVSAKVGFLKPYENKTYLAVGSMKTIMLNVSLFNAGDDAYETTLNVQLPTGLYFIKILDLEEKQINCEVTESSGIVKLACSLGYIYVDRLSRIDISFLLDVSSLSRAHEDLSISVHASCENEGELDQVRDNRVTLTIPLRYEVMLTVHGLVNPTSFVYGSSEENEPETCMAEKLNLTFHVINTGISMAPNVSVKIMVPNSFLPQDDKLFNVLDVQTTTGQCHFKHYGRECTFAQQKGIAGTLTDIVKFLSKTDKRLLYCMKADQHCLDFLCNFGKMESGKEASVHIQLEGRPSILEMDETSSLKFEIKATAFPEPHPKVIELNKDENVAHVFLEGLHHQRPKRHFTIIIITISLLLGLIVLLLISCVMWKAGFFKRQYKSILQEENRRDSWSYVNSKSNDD
T2 sequence (P09055 21-798): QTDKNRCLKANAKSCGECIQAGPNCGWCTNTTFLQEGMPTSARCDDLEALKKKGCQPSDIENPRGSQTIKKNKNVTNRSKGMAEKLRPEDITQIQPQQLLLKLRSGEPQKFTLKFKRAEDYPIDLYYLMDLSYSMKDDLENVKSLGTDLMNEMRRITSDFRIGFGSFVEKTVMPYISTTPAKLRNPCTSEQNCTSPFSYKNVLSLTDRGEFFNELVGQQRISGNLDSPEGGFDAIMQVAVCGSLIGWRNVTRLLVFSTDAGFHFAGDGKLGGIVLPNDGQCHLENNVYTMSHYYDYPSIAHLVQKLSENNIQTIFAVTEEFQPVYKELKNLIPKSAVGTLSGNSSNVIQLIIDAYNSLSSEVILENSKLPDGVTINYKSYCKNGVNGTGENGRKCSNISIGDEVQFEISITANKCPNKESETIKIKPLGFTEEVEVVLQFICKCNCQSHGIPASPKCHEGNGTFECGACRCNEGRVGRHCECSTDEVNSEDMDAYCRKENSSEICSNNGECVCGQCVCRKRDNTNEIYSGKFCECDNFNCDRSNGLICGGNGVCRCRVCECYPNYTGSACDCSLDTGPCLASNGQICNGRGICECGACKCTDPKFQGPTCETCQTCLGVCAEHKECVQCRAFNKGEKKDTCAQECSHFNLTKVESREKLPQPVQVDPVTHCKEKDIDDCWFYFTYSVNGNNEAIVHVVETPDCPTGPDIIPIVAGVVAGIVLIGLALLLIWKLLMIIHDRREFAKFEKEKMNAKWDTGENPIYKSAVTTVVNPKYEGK
Nature of the assay: 70Z3 cell adhesion to VCAM-1. It is filed as cell-based.

Assay [3] concerns the target T1, integrin α4β1. Nature of the assay: K562(α4β1) cell adhesion to VCAM-1. The assay is classed as cell-based. The arrangement: expressed in transfected cells; host or cells: K562(α4β1) cells. As for the experimental part: A, B. Structure of THI520 and THI528. C. THI520 and THI0528 inhibition of α4β1-K562 cell adhesion to VCAM-1 (Mn++).
(§1) The core of this structure is different than that of TBC3486 (FIG. 3A). […] THI528 was tested for binding to integrin α4β1by flow cytometry (FIG. 4). Jurkat cells that express the integrin α4β1 (Jurkat(α4β1)), or mutagenized Jurkat cells that no longer express the integrin α4β1 (Jurkat(α4^null)), where incubated with increasing concentrations of THI528.

Assay [4] deals with T2, murine integrin α4β1. Briefly: Flow cytometry binding to 70Z3 cells. As to conditions: 70Z3, Flow Cytometry, cations Mn. In general terms: In flow cytometry, cells or beads pass a laser one at a time.
For assay [5], the target named is T1, integrin α4β1. Briefly: Flow cytometry binding to Jurkat cells. Particulars: for IC50: Jurkat, Flow Cytometry, Human. The protocol: B. Individual histograms of 10 nM dose of THI528±EDTA.
as §1

Assay [6] has as its target T1, integrin α4β1. Nature of the assay: Flow cytometry binding to K562(α4β1) cells. The arrangement: expressed in transfected cells; host or cells: K562(α4β1) cells. Particulars: cations Mn.
Where [7] appears, read: K562(α4β1), substrate CS-1, cations Mn, Human.
The mark [8] stands for this setting: 70Z3, substrate VCAM-1, cations Ca/Mg.
The mark [9] stands for this setting: 70Z3, substrate VCAM-1, cations Mn.
Setting [10] is: K562(α4β1), substrate VCAM-1, cations Ca/Mg, Human (low affinity α4β1 adhesion assay), read-out: Activity (IC50) (converted).

T1 sequence (P13612 34-1032): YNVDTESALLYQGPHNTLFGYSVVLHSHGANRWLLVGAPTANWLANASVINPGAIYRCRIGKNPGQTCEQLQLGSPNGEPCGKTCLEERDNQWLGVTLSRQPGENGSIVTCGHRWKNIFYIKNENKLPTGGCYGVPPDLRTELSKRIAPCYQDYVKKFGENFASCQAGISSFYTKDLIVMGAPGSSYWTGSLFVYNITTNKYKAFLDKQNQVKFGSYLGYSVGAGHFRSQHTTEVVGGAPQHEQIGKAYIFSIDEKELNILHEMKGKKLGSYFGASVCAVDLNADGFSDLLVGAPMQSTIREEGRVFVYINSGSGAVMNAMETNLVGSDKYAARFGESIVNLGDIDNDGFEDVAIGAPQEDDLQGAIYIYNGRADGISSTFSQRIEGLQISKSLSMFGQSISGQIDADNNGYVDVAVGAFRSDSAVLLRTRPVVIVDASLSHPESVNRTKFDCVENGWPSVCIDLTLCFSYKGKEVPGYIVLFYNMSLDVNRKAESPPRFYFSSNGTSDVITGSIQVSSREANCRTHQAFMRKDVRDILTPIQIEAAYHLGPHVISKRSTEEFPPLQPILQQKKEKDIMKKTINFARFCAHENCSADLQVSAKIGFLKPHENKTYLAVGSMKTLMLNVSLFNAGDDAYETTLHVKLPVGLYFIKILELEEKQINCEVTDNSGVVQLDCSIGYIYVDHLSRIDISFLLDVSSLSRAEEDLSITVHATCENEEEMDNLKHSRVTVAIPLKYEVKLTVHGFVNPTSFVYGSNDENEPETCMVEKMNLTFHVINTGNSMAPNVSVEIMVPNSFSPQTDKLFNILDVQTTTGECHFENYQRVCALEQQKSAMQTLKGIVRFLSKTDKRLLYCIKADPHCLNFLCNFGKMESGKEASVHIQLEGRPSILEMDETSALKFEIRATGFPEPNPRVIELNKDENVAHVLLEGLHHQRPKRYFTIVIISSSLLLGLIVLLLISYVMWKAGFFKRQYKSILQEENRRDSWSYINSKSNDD
T1 sequence (P05556 21-798): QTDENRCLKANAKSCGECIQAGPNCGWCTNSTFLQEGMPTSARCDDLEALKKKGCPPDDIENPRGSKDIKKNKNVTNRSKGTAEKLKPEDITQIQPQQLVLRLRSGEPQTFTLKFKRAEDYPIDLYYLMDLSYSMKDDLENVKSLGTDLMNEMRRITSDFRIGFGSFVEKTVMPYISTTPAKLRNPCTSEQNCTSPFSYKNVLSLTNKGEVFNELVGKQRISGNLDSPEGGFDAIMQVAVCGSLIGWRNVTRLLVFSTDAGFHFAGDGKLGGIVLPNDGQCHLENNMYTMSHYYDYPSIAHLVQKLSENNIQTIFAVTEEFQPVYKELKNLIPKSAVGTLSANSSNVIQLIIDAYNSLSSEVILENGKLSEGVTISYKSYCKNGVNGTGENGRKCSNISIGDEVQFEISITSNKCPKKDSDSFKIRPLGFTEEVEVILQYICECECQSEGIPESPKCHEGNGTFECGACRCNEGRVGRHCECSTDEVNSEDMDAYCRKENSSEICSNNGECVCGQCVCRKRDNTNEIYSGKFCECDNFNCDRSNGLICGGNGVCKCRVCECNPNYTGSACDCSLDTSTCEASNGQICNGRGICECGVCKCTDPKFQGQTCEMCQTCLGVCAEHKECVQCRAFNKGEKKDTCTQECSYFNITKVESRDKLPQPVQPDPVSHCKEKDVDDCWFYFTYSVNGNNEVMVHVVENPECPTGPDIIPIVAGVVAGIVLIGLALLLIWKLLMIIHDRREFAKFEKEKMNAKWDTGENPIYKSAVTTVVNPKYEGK

Broadly, the IC50 is the point on the concentration scale where inhibition reaches its midpoint. In the case of `Cc1ccc([C@H](CC(=O)O)NC(=O)Nc2c(O)c(C)cn(Cc3ccccc3Cl)c2=O)cc1` [THI375], the 50% inhibitory concentration (IC50) against integrin α4β1 [1] (setting [7]) is 2.2 ± 0.53 nM; against murine integrin α4β1 [2] (setting [8]) it was 10300 nM; against murine integrin α4β1 [2] (setting [9]) it was 127 nM; on integrin α4β1 [3] (setting [10]), 810 nM; on integrin α4β1 [3] (K562(α4β1), substrate VCAM-1, cations Mn, Human, read-out: Activity (IC50) (converted)) it was 1.4 nM.

Consider `CCOc1cccc([C@H](CC(=O)O)NC(=O)Nc2c(OCCCCCCNC(=O)CCCCC[N+]3=C(/C=C/C=C/C=C4/N(C)c5ccc(S(=O)(=O)[O-])cc5C4(C)C)C(C)(C)c4cc(S(=O)(=O)[O-])ccc43)c(C)cn(Cc3c(Cl)cccc3OCC)c2=O)c1.[Na+]` [THI528], for which the IC50 was 0.06 nM at murine integrin α4β1 [4]; 0.202 nM at integrin α4β1 [5] (cations Ca/Mg); 0.069 nM on integrin α4β1 [5] (cations Mn); 0.519 ± 0.097 nM at integrin α4β1 [3] (n=3, same value as Table 2 K562(α4β1)/VCAM-1/Mn, read-out: a4b1 IC50). Besides, on integrin α4β1 [5] (Jurkat(α4β1) cells, flow cytometry, n=1, read-out: apparent Kd), the Kd was found to be 0.26 nM. Further, on integrin α4β1 [5] (flow cytometry, increasing concentrations), the “binding to Jurkat cells expressing α4β1” value is “Specific and saturable binding”. The “binding in presence of EDTA or to Jurkat cells lacking α4β1” value at integrin α4β1 [5] (flow cytometry, EDTA or Jurkat(α4β1) cells as printed) is listed as “no detectable binding”. For the same molecule, at integrin α4β1 [3] (compared with THI520), the “antagonist activity after conjugation to sulfo-Cy5” value is recorded as “no apparent loss in antagonist activity”.

In the case of `C[N+]1=C(/C=C/C=C/C=C2/N(CCCCCC(=O)NCCCCCC(=O)O)c3ccc(S(=O)(=O)[O-])cc3C2(C)C)C(C)(C)c2cc(S(=O)(=O)[O-])ccc21.[Na+]` [THI529], on integrin α4β1 [1] (K562(α4β1), substrate CS-1, cations Mn, Human, result in words), the “Activity (IC50)” value is “No Activity (n = 3) K562(α4β1)”.

As for `CCOc1cccc([C@H](CC(=O)[O-])NC(=O)Nc2c([O-])c(C)cn(Cc3c(Cl)cccc3OCC)c2=O)c1.[Na+].[Na+]` [THI520], the IC50 is 0.11 ± 0.04 nM against integrin α4β1 [1] (setting [7]), 129 nM against murine integrin α4β1 [2] (setting [8]), 0.75 nM against murine integrin α4β1 [2] (setting [9]) and 6.3 ± 3.1 nM on integrin α4β1 [3] (setting [10]). For the same molecule, the “activity in high affinity assays” value on integrin α4β1 [1] (high affinity α4β1 adhesion assays) was “pM activity”.

For the molecule `C[N+]1=C(/C=C/C=C/C=C2/N(CCCCCC(=O)NCCCCCC(=O)NCCCC[C@@H](NC(=O)N[C@H](CC(=O)O)c3ccc4c(c3)OCO4)C(=O)N(Cc3cccs3)Cc3cccs3)c3ccc(S(=O)(=O)[O-])cc3C2(C)C)C(C)(C)c2cc(S(=O)(=O)O)ccc21` [THI517], the IC50 is 1700 ± 1000 nM on integrin α4β1 [1] (setting [7]) and over 1000 nM on integrin α4β1 [6].

With `CCOc1cccc([C@H](CC(=O)O)NC(=O)Nc2c(OCCCCCCNC(=O)C(CNC(=O)C(CNC(=O)CCCCC[N+]3=C(/C=C/C=C/C=C4/N(C)c5ccc(S(=O)(=O)[O-])cc5C4(C)C)C(C)(C)c4cc(S(=O)(=O)O)ccc43)S(=O)(=O)O)S(=O)(=O)O)c(C)cn(Cc3c(Cl)cccc3OCC)c2=O)c1` (stereo partly shown) [THI540], the half-maximal inhibitory concentration (IC50) at integrin α4β1 [5] (cations Mn) came out at 0.078 ± 0.037 nM.
